{"source": "ChEMBL document CHEMBL5584341", "about": "“Discovery of Potent, Specific, and Orally Available NLRP3 Inflammasome Inhibitors Based on Pyridazine Scaffolds for the Treatment of Septic Shock and Peritonitis” (J Med Chem, 2024)", "key": {"[1]": {"biological_target": "hERG (KCNH2) (Homo sapiens, UniProt Q12809)", "sequence (Q12809 whole entry)": "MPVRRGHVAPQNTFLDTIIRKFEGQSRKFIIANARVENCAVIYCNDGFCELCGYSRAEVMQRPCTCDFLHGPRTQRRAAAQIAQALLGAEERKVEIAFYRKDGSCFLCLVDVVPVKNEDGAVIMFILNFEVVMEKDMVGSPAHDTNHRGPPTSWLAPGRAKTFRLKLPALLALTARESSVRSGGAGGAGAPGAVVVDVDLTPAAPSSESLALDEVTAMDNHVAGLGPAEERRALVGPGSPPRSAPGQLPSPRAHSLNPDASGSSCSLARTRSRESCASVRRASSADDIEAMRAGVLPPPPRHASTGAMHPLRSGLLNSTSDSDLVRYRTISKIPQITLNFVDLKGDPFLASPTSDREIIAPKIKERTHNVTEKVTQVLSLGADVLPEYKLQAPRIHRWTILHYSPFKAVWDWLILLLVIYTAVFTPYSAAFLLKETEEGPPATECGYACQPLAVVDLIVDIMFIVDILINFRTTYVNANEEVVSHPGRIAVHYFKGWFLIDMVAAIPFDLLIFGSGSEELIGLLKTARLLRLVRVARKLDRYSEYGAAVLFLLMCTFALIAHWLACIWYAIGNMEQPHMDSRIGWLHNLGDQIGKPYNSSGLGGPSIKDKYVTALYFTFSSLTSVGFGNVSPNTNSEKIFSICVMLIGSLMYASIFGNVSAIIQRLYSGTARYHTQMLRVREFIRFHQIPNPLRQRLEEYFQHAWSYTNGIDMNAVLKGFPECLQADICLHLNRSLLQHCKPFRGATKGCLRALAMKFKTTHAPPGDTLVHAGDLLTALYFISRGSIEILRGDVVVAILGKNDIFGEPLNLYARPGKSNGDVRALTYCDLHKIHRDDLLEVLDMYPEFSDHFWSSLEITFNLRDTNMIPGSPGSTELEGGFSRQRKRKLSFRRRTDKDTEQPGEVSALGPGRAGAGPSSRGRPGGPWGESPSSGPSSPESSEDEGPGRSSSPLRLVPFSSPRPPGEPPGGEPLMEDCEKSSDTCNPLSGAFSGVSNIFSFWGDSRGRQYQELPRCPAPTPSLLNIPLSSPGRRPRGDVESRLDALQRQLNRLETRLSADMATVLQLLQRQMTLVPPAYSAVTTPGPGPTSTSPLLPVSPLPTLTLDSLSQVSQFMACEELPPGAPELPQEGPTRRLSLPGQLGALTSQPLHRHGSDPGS", "assay": "Inhibition of human ERG at 20 uM relative to control"}, "[2]": {"assay": "Metabolic stability in human liver microsomes assessed as intrinsic clearance per g protein at 10 uM […] in presence of NADPH by LC-MS/MS analysis", "format": "ADME, Microsome"}, "[3]": {"assay": "Tmax in BALB/c mouse at 5 mg/kg, iv measured upto 24 hrs by LC-MS/MS analysis", "format": "ADME, organism-based", "conditions": "in vivo"}, "[4]": {"assay": "Cmax in BALB/c mouse at 5 mg/kg, iv measured upto 24 hrs by LC-MS/MS analysis", "format": "ADME, organism-based", "conditions": "in vivo"}, "[5]": {"assay": "MRT(0 to t) in BALB/c mouse at 5 mg/kg, iv measured upto 24 hrs by LC-MS/MS analysis", "format": "ADME, organism-based", "conditions": "in vivo"}, "[6]": {"assay": "Tmax in BALB/c mouse at 5 mg/kg, po measured upto 24 hrs by LC-MS/MS analysis", "format": "ADME, organism-based", "conditions": "in vivo"}, "[7]": {"assay": "AUC(0 to t) in BALB/c mouse at 5 mg/kg, po measured upto 24 hrs by LC-MS/MS analysis", "format": "ADME, organism-based", "conditions": "in vivo"}, "[8]": {"tested_on": "HepG2", "assay": "Cytotoxicity against human HepG2 cells at 5 to 20 uM incubated for 72 hrs by MTT assay", "format": "toxicity, cell-based", "conditions": "hepg2, 72 h, dose 5-20 µM"}, "[9]": {"tested_on": "LX-2", "assay": "Cytotoxicity against human LX-2 cells at 5 uM incubated for 72 hrs by MTT assay", "format": "toxicity, cell-based", "conditions": "lx-2, 72 h"}, "[10]": {"tested_on": "LX-2", "assay": "Cytotoxicity against human LX-2 cells at 20 uM incubated for 72 hrs by MTT assay", "format": "toxicity, cell-based", "conditions": "lx-2, 72 h"}, "[11]": {"tested_on": "NRK-49F", "assay": "Cytotoxicity against rat NRK-49F cells at 5 to 20 uM incubated for 72 hrs by MTT assay", "format": "toxicity, cell-based", "conditions": "dose 5-20 µM"}, "[12]": {"biological_target": "T1, Cytochrome P450 1A2 (Homo sapiens, UniProt P05177)", "T1 sequence (P05177 whole entry)": "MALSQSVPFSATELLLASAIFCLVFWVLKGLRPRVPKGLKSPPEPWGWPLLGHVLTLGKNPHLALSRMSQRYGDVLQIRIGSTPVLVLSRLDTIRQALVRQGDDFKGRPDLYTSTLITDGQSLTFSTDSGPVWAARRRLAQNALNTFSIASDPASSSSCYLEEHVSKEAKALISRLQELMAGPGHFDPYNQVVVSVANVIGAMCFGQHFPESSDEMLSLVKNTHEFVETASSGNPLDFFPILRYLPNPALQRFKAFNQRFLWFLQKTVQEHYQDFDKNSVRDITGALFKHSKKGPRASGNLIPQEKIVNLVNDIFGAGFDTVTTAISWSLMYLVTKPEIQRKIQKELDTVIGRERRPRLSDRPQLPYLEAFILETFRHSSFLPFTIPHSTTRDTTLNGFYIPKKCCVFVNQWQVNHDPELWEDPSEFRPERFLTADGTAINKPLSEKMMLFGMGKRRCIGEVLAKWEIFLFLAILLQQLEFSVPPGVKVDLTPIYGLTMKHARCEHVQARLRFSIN", "assay": "Inhibition of human CYP1A2 upto 10 uM relative to control", "format": "ADME"}, "[13]": {"biological_target": "Cytochrome P450 2C9 (Homo sapiens, UniProt P11712)", "sequence (P11712 whole entry)": "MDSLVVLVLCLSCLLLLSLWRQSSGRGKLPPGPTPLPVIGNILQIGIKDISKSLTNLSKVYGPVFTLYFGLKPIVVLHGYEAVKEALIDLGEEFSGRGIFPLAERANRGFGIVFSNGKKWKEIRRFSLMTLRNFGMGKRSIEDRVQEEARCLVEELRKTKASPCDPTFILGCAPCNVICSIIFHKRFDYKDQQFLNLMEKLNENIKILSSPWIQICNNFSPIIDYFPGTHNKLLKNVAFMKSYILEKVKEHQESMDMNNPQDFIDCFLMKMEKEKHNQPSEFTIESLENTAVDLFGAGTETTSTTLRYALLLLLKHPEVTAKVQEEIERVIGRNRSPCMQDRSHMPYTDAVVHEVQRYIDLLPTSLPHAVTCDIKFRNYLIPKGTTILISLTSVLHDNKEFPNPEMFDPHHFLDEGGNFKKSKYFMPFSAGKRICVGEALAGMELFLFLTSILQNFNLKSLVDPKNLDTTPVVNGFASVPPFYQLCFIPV", "assay": "Inhibition of human CYP2C9 upto 10 uM relative to control", "format": "ADME"}, "[14]": {"biological_target": "Cytochrome P450 2C19 (Homo sapiens, UniProt P33261)", "sequence (P33261 whole entry)": "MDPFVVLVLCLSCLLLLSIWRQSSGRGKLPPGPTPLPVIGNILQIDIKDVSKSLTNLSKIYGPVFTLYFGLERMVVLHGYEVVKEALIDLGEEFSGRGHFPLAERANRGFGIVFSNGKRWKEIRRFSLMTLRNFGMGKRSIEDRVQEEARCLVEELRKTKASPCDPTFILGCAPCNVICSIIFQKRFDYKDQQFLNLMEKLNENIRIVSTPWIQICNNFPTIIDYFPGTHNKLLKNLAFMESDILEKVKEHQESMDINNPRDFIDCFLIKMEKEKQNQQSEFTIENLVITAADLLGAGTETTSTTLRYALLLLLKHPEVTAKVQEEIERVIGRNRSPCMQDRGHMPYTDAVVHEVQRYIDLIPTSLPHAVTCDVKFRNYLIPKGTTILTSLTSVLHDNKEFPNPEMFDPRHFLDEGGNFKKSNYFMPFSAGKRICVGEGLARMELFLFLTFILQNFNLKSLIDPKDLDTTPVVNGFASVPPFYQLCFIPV", "assay": "Inhibition of human CYP2C19 upto 10 uM relative to control", "format": "ADME"}, "[15]": {"biological_target": "Cytochrome P450 2D6 (Homo sapiens, UniProt P10635)", "sequence (P10635 whole entry)": "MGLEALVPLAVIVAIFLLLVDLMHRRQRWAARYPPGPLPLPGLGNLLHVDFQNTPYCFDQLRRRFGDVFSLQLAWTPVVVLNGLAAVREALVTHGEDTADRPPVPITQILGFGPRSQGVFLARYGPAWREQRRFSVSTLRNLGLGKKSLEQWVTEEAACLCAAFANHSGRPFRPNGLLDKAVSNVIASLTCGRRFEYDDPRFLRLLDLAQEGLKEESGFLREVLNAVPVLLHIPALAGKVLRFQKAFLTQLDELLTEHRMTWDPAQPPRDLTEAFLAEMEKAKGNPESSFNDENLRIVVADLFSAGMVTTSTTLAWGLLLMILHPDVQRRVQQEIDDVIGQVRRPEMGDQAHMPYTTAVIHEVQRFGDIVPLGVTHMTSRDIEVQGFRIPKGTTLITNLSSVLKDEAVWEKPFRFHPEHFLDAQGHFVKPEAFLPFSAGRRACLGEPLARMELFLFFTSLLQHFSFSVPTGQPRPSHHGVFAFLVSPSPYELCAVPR", "assay": "Inhibition of human CYP2D6 at 10 uM relative to control", "format": "ADME"}, "[16]": {"biological_target": "NACHT, LRR and PYD domains-containing protein 3 (Mus musculus, UniProt Q8R4B8)", "sequence (Q8R4B8 whole entry, the tested form may be a part)": "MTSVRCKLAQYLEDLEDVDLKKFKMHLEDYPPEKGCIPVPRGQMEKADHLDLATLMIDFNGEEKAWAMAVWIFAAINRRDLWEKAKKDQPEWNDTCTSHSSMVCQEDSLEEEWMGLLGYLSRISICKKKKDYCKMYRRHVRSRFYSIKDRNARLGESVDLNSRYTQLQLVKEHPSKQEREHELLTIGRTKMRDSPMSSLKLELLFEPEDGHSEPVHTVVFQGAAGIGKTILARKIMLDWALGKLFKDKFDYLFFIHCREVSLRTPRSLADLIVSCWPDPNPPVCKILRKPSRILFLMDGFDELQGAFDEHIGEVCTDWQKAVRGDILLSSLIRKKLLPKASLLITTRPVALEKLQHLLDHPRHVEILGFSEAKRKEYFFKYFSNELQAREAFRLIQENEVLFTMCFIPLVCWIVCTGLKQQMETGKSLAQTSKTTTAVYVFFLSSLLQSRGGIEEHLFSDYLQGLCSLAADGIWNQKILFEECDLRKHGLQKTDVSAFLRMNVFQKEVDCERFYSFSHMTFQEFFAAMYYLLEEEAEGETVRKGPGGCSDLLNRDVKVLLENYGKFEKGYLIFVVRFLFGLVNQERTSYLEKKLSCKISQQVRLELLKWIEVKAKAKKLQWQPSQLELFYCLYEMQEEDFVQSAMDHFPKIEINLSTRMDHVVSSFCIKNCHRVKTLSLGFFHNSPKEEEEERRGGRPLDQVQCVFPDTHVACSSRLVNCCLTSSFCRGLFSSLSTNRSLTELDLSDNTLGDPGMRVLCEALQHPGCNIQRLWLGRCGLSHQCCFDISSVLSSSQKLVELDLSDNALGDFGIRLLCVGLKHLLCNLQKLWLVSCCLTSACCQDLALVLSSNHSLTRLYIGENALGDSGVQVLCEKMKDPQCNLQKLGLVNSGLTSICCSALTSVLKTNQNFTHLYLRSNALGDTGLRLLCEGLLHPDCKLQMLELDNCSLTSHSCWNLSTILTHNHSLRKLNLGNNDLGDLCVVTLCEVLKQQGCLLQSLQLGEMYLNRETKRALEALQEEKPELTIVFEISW", "assay": "Inhibition of NLRP3 inflammasome activation in LPS/nigericin stimulated mouse BMDMs assessed as reduction in IL-1beta release pretreated with LPS for 3 hrs followed by compound addition for 40 mins prior to nigericin stimulation for 40 mins by ELISA", "format": "cell-based, BMDM"}, "[17]": {"biological_target": "NACHT, LRR and PYD domains-containing protein 3 (Mus musculus) (UniProt Q8R4B8)", "sequence (Q8R4B8 whole entry, the tested form may be a part)": "as above", "assay": "Inhibition of NLRP3 inflammasome activation in LPS/nigericin stimulated mouse BMDMs assessed as reduction in IL-1beta release pretreated with LPS for 3 hrs followed by compound addition for 40 mins prior to nigericin stimulation for 40 mins by Western blotting analysis", "format": "cell-based", "conditions": "BMDM, time 80.0 min"}, "[18]": {"biological_target": "NACHT, LRR and PYD domains-containing protein 3 (Mus musculus) (UniProt Q8R4B8)", "assay": "Inhibition of NLRP3 inflammasome activation in LPS/nigericin stimulated mouse BMDMs assessed as effect on ASC expression pretreated with LPS for 3 hrs followed by compound addition for 40 mins prior to nigericin stimulation for 40 mins by Western blotting analysis", "format": "cell-based", "conditions": "BMDM, time 80.0 min"}, "[19]": {"biological_target": "NACHT, LRR and PYD domains-containing protein 3 (Mus musculus) (UniProt Q8R4B8)", "assay": "Inhibition of NLRP3 inflammasome activation in mouse BMDMs assessed as effect on pro-IL-1beta expression at 2 to 31.25 nM pretreated with compound for 40 mins followed by LPS/nigericin stimulation", "format": "cell-based", "conditions": "BMDM, dose 2-31.25 nM"}, "[20]": {"biological_target": "NACHT, LRR and PYD domains-containing protein 3 (Mus musculus) (UniProt Q8R4B8)", "assay": "Inhibition of NLRP3 inflammasome activation in mouse BMDMs assessed as effect on NLRP3 expression at 2 to 31.25 nM pretreated with compound for 40 mins followed by LPS/nigericin stimulation", "format": "cell-based", "conditions": "BMDM, dose 2-31.25 nM"}, "[21]": {"biological_target": "NACHT, LRR and PYD domains-containing protein 3 (Mus musculus) (UniProt Q8R4B8)", "assay": "Inhibition of NLRP3 inflammasome activation in mouse BMDMs assessed as effect on NLRP3 expression at 2 to 31.25 nM pretreated with LPS for 3 hrs followed by compound addition for 40 mins", "format": "cell-based", "conditions": "BMDM, dose 2-31.25 nM"}, "[22]": {"biological_target": "NACHT, LRR and PYD domains-containing protein 3 (Mus musculus) (UniProt Q8R4B8)", "assay": "Inhibition of NLRP3 inflammasome activation in LPS stimulated mouse BMDMs assessed as reduction in IL-1beta release at 2 to 31.25 nM pretreated with LPS for 3 hrs followed by compound addition for 40 mins prior to MSU stimulation for 6 hrs by ELISA", "format": "cell-based", "conditions": "BMDM, dose 2-31.25 nM, time 400.0 min"}, "[23]": {"biological_target": "NLR family CARD domain-containing protein 4 (Mus musculus) (UniProt Q3UP24)", "sequence (Q3UP24 whole entry, the tested form may be a part)": "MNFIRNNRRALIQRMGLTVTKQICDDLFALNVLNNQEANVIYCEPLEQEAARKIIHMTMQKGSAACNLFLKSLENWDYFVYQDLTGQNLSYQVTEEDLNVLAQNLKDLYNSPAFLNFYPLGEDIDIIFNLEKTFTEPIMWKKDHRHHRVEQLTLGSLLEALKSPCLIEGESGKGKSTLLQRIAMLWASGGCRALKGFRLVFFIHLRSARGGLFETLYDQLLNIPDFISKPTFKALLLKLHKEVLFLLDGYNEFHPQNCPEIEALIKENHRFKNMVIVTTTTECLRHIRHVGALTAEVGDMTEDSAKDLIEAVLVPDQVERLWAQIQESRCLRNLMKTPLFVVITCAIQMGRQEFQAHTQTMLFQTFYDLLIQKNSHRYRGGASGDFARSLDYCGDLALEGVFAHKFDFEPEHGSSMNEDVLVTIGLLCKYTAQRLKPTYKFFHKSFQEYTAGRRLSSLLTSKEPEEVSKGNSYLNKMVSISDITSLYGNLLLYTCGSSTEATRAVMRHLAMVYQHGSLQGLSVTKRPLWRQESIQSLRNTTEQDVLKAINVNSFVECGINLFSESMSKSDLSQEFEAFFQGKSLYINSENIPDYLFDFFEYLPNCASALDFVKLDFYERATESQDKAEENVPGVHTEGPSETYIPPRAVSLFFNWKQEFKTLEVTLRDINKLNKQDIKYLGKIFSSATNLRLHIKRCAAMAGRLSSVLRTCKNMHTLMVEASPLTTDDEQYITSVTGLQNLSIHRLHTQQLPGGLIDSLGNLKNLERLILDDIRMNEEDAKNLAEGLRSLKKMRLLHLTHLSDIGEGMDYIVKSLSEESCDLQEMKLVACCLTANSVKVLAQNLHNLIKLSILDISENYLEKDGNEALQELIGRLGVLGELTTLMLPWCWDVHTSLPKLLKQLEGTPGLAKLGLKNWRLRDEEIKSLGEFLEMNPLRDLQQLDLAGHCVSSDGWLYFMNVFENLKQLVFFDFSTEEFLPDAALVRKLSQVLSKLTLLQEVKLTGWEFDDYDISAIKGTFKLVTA", "assay": "Inhibition of flagellin stimulated NLRC4 inflammasome activation in mouse BMDMs assessed as reduction in IL-1beta secretion at 0.1 to 10 uM pretreated with LPS for 3 hrs followed by compound addition for 40 mins prior to flagellin stimulation for 6 hrs by ELISA", "format": "cell-based", "conditions": "BMDM, dose 0.1-10 µM, time 400.0 min"}, "[24]": {"tested_on": "THP-1", "assay": "Inhibition of nigericin induced ASC specks formation in PMA differentiated human THP-1 cells at 5 to 80 nM pretreated with LPS for 3 hrs followed by compound addition for 40 mins prior to nigericin stimulation for 40 mins by Western blotting analysis", "format": "functional, cell-based", "conditions": "dose 5-80 nM, time 80.0 min"}, "[25]": {"tested_on": "Mus musculus", "assay": "Antiinflammatory activity against LPS induced septic shock in BALB/c mouse assessed as increase in survival rate at 25 mg/kg, ip pretreated for 1 hr followed by LPS stimulation and measured after 72 hrs", "format": "functional", "conditions": "time 73 hrs"}, "[26]": {"tested_on": "Mus musculus", "assay": "Antiinflammatory activity against LPS induced septic shock in BALB/c mouse assessed as reduction in TNFalpha level at 25 mg/kg, ip pretreated for 1 hr followed by LPS stimulation and measured after 3 hrs by ELISA", "format": "functional, organism-based", "conditions": "time 4.0 hrs"}, "[27]": {"tested_on": "Mus musculus", "assay": "Inhibition of MSU crystal induced peritonitis in BALB/c mouse assessed as reduction in neutrophil recruitment at 50 to 100 mg/kg, ip pretreated with LPS for 3 hrs followed by compound addition prior to MSU stimulation for 6 hrs by ELISA", "format": "functional, organism-based", "conditions": "dose 50-100 mg/kg"}}, "note": "Calls of active or inactive are those of the source. The calls are words filed in the database; no cut-off is given here.", "data": [{"molecule": "OCCN1CCC[C@@H](Nc2nnc(-c3ccc4occc4c3O)c3c2C2CCC3CC2)C1", "values": [{"measurement": "inhibition at 20 µM", "setting": "[1]", "value": 49.1, "unit": "%"}, {"measurement": "intrinsic clearance", "setting": "[2]", "value": "< 12", "unit": "mL/min"}, {"measurement": "Tmax", "setting": "[3]", "value": 4.98, "unit": "min"}, {"measurement": "Cmax", "setting": "[4]", "value": 3770, "unit": "ng/mL"}, {"measurement": "MRT last at 24 h", "setting": "[5]", "value": 4.1, "unit": "h"}, {"measurement": "Tmax", "setting": "[6]", "value": 1.83, "unit": "h"}, {"measurement": "AUC(0-t) at 24 h", "setting": "[7]", "value": 5940, "unit": "ng·h/mL"}, {"measurement": "Activity", "setting": "[8]", "value": "Non-Toxic"}, {"measurement": "Activity", "setting": "[9]", "value": "Non-Toxic"}, {"measurement": "Activity", "setting": "[10]", "value": "Toxic"}, {"measurement": "Activity", "setting": "[11]", "value": "Non-Toxic"}, {"measurement": "inhibition (INH)", "setting": "[12]", "value": "Not Active"}, {"measurement": "inhibition (INH)", "setting": "[13]", "value": "Not Active"}, {"measurement": "inhibition (INH)", "setting": "[14]", "value": "Not Active"}, {"measurement": "inhibition (INH)", "setting": "[15]", "value": "Active"}, {"measurement": "IC50", "setting": "[16]", "value": 15.3, "unit": "nM"}, {"measurement": "inhibition", "setting": "[17]", "value": "Dose-Dependent Effect"}, {"measurement": "inhibition", "setting": "[18]", "value": "inactive"}, {"measurement": "inhibition", "setting": "[19]", "value": "inactive"}, {"measurement": "inhibition", "setting": "[20]", "value": "inactive"}, {"measurement": "inhibition", "setting": "[21]", "value": "inactive"}, {"measurement": "inhibition", "setting": "[22]", "value": "Active"}, {"measurement": "inhibition", "setting": "[23]", "value": "inactive"}, {"measurement": "inhibition", "setting": "[24]", "value": "Active"}, {"measurement": "Activity", "setting": "[25]", "value": 82, "unit": "%"}, {"measurement": "Activity", "setting": "[26]", "value": "Active"}, {"measurement": "inhibition", "setting": "[27]", "value": "Active"}]}]}
